Where “and” joins values, the source holds several entries; their conditions need not be identical. Equal values may be shown once.
Tests used:
[1] = tested on: Trichostrongylidae (Trichostrongylus colubriformis); test: Anthelmintic test against sheep Trichostrongylidae in naturally infected sheep, E.P.G. on 7th day (Test Examples A7, B7, C7, D7); assay type: in vivo; details: Trichostrongylus colubriformis
[2] = tested on: Trichostrongylidae (Trichostrongylus colubriformis); test: as above; assay type: in vivo; details: one administration of 15 mg/Kg
Protocol: Two sheep infected with Trichostrongylidae (naturally infected sheep) were employed.
The compound provided for the test was Compound No. Al, 15 mg of which was placed in a gelatin capsule per 1 Kg of body weight and administered orally to one of the sheep. As a control, only gelatin capsules were administered orally to the other sheep.
Before administration and on the 7th day after administration, fecal matter testing was conducted to calculate the E.P.G., and the anthelmintic effect was judged by the changing of the E.P.G. to negative.
As control, only gelatin capsules were administered orally to the other sheep.
As control, only gelatin capsule was administered orally to the other sheep.

[3] = tested on: canine strongyloides (Strongyloides stercoralis); test: Anthelmintic test against canine strongyloides in naturally infected dogs, E.P.G. on 7th day (Test Examples A4, B4, C4, D4); assay type: in vivo
[4] = tested on: fowl roundworm (As. galli); test: Anthelmintic test in chickens artificially infected with fowl roundworm, compound added to feed, E.P.G. and worm count up to 21st day (Test Examples A2, B2, C2, D2); assay type: in vivo, Ascaridia galli; details: Ascaridia galli, feed or water, 504 h, chicken, read-out: Anthelmintic effect
[5] = tested on: fowl roundworm (Ascaridia galli); test: Anthelmintic test in chickens artificially infected with fowl roundworm, single oral dose in gelatin capsule, worm bodies counted within 48 hours (Test Examples A1, B1, C1, D1); assay type: in vivo; details: Ascaridia galli, po, 48 h, chicken, chickens No.1-3, read-out: Anthelmintic effect after 48 hours
Outline: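 Groups of three chickens with confirmed Ascaridia galli infection given a single oral dose in gelatin capsule (10 and 20 mg/kg in A1 and B1; 30 and 50 mg/kg in C1; 15 and 30 mg/kg in D1). Worms expelled over 48 h and those remaining in the gut at necropsy counted to give anthelmintic percentage.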

CC=CCON(CC=CC)C(C)=O [Compound C10]
Change of E.P.G. 7th day ([1]; 20 mg/Kg oral in gelatin capsule, one administration): 0
Change of E.P.G. Before administration ([1]; before 20 mg/Kg oral (baseline)): 1,800
anthelmintic effect [2]: marked anthelmintic effect
Change of E.P.G. 7th day ([3]; dog, Strongyloides stercoralis, 30 mg/Kg oral in gelatin capsule, one administration): 0
Change of E.P.G. Before administration ([3]; dog, Strongyloides stercoralis, before 30 mg/Kg oral (baseline)): 2,300 and 3,100
anthelmintic effect ([3]; dogs, one administration of 30 mg/Kg): marked anthelmintic effect
inhibition in vivo at 25 ppm ([4]; 25 ppm in feed): 80 to 90%
inhibition in vivo at 50 ppm ([4]; 50 ppm in feed): 100%
inhibition in vivo at 30 mg/kg ([5]; 30 mg/Kg oral in gelatin capsule): 80 to 90%
inhibition in vivo at 50 mg/kg ([5]; 50 mg/Kg oral in gelatin capsule): 100%
